From BindingDB's records for patent US20250066370 (Deutsches Krebsforschungszentrum, 2025) come the findings set out here.

pIC50: −log10 of the molar value.

The target in experiment [1] is Cyclin-K/Cyclin-dependent kinase 12 (Human, UniProt Q9NYV4). Nature of the experiment: CDK12/CycK High ATP Kinase Assay. An excerpt: For the assay 50 nanoL of a 100 fold concentrated solution of the test compound in DMSO was pipetted into either a black low volume 384 well microtiter plate or a black 1536 well microtiter plate (both Greiner Bio-One, Frickenhausen, Germany), 2 microL of a solution of CDK12/CycK in aqueous assay buffer [25 millimol/L HEPES pH 7.5, 20 millimol/L MgCl2, 5 millimol/L β-glycerophosphate, 2 millimol/L EGTA, 1.0 millimol/L dithiothreitol, 0.01% (v/v) Nonidet-P40 (Sigma), 0.01% (w/v) bovine serum albumin] were added and the mixture was incubated for 15 min at 22° C. to allow pre-binding of the test compounds to the enzyme before the start of the kinase reaction. Then the kinase reaction was started by the addition of 3 microL of a solution ATP (3.33 millimol/L=>final conc. in the 5 microL assay volume is 2 millimol/L) and substrate (1.67 micromol/L=>final conc. in the 5 microL assay volume is 1 micromol/L) in assay buffer and the resulting mixture was incubated for a reaction time of 60 min at 22° C. The concentration of CDK12/CycK was adjusted depending of the activity of the enzyme lot and was chosen appropriate to have the assay in the linear range, typical concentrations were about 0.75 nanomol/L. The reaction was stopped by the addition of 3 microL of a solution of TR-FRET detection reagents (125 nanomol/L streptavidine-XL665 [Cisbio Bioassays, Codolet, France] and 0.67 nanomol/L anti-Phospho-c-Myc (Ser 62) (E1J4K)-antibody from Cell Signalling [#13748] and 2 nanomol/L LANCE EU-W1024 labeled anti-rabbit IgG antibody [Perkin-Elmer, product no. 0083]) in an aqueous EDTA-solution (133 millimol/L EDTA, 0.27% (w/v) bovine serum albumin in 66.7 millimol/L HEPES pH 7.5).The resulting mixture was incubated 1 h at 22° C. to allow the formation of complex between the phosphorylated biotinylated peptide and the detection reagents. Subsequently the amount of phosphorylated substrate was evaluated by measurement of the resonance energy transfer from the Eu-chelate to the streptavidine-XL. Therefore, the fluorescence emissions at 620 nm and 665 nm after excitation at 350 nm was measured in a TR-FRET reader, e.g. a Pherastar FS (BMG Labtechnologies, Offenburg, Germany) or a Viewlux (Perkin-Elmer).

Experiment [2] deals with Cyclin-dependent kinase 2/G1/S-specific cyclin-E1 (Homo sapiens, UniProt P24941). Nature of the experiment: CDK2/CycE Kinase Assay. How it is done: (§1) For the assay 50 nanoL of a 100 fold concentrated solution of the test compound in DMSO was pipetted into a black low volume 384 well microtiter plate or a black 1536 well microtiter plate (both Greiner Bio-One, Frickenhausen, Germany), 2 microL of a solution of CDK2/CycE in aqueous assay buffer [50 millimol/L Tris/HCl PH 8.0, 10 millimol/L MgCl2, 1.0 millimol/L dithiothreitol, 0.1 millimol/L sodium ortho-vanadate, 0.01% (v/v) Nonidet-P40 (Sigma)] were added and the mixture was incubated for 15 min at 22° C. to allow pre-binding of the test compounds to the enzyme before the start of the kinase reaction. Then the kinase reaction was started by the addition of 3 microL of a solution of adenosine-tri-phosphate (ATP, 3.33 millimol/L=>final conc. in the 5 microL assay volume is 2 millimol/L) and substrate (1.25 micromol/L=>final conc. in the 5 microL assay volume is 0.75 micromol/L) in assay buffer and the resulting mixture was incubated for a reaction time of 25 min at 22° C. The concentration of CDK2/CycE was adjusted depending of the activity of the enzyme lot and was chosen appropriate to have the assay in the linear range, typical concentrations were in the range of 10 ng/ml. The reaction was stopped by the addition of 3 microL of a solution of TR-FRET detection reagents (0.333 micromol/L streptavidine-XL665 [Cisbio Bioassays, Codolet, France] and 1.67 nanomol/L anti-RB (pSer807/pSer811)-antibody from BD Pharmingen [#558389] and 2 nanomol/L LANCE EU-W1024 labeled anti-mouse IgG antibody [Perkin-Elmer, product no. AD0077, as an alternative a Terbium-cryptate-labeled anti-mouse IgG antibody from Cisbio Bioassays can be used]) in an aqueous EDTA-solution (167 millimol/L EDTA, 0.2% (w/v) bovine serum albumin in 100 millimol/L HEPES pH 7.5).The resulting mixture was incubated 1 h at 22° C. to allow the formation of complex between the phosphorylated biotinylated peptide and the detection reagents. Subsequently the amount of phosphorylated substrate was evaluated by measurement of the resonance energy transfer from the Eu-chelate to the streptavidine-XL. Therefore, the fluorescence emissions at 620 nm and 665 nm after excitation at 350 nm was measured in a TR-FRET reader, e.g. a Pherastar (BMG Labtechnologies, Offenburg, Germany) or a Viewlux (Perkin-Elmer).

The target of experiment [3] is Cyclin-T1/Cyclin-dependent kinase 9 (Homo sapiens, UniProt P50750). As to the kind of experiment: CDK9/CycT1 High ATP Kinase Assay. How it is done:
as §1, with “into either” for “into”, “CDK9/CycT1” for “CDK2/CycE”, “3.3” for “3.33”, “0.5 microg/ml. […]” for “10 ng/ml. The reaction was stopped by the addition of 3 microL of a solution of TR-FRET detection reagents (0.333 micromol/L streptavidine-XL665 [Cisbio Bioassays, Codolet, France] and 1.67 nanomol/L anti-RB (pSer807/pSer811)-antibody from BD Pharmingen [#558389] and 2 nanomol/L LANCE EU-W1024 labeled anti-mouse IgG antibody [Perkin-Elmer, product no. AD0077, as an alternative a Terbium-cryptate-labeled anti-mouse IgG antibody from Cisbio Bioassays can be used]) in an aqueous EDTA-solution (167 millimol/L EDTA, 0.2% (w/v) bovine serum albumin in 100 millimol/L HEPES pH 7.5).The resulting mixture was incubated 1 h at 22° C. to allow the formation of complex between the phosphorylated biotinylated peptide and the detection reagents.”

Broadly, the pIC50 is the negative decadic logarithm of the IC50, by convention in mol/L. Low readings indicate a high IC50, high ones a low IC50.

Chain of Cyclin-K/Cyclin-dependent kinase 12 (O75909 whole entry): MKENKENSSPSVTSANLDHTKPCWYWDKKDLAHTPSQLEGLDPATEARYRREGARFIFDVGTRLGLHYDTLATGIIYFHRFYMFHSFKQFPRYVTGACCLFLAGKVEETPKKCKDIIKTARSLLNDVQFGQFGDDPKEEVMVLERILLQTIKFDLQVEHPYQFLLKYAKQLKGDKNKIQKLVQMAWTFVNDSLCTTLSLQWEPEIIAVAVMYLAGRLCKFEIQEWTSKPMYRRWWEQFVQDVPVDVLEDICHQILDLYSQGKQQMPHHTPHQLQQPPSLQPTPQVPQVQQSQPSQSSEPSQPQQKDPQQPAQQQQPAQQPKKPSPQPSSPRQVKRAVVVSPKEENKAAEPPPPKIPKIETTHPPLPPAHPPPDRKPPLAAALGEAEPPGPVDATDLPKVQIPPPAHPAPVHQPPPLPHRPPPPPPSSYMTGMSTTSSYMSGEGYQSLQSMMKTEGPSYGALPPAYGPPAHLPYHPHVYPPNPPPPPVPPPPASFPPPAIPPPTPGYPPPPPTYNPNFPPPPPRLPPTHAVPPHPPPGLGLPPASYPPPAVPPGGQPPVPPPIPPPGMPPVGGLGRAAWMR
Chain of Cyclin-K/Cyclin-dependent kinase 12 (Q9NYV4 whole entry): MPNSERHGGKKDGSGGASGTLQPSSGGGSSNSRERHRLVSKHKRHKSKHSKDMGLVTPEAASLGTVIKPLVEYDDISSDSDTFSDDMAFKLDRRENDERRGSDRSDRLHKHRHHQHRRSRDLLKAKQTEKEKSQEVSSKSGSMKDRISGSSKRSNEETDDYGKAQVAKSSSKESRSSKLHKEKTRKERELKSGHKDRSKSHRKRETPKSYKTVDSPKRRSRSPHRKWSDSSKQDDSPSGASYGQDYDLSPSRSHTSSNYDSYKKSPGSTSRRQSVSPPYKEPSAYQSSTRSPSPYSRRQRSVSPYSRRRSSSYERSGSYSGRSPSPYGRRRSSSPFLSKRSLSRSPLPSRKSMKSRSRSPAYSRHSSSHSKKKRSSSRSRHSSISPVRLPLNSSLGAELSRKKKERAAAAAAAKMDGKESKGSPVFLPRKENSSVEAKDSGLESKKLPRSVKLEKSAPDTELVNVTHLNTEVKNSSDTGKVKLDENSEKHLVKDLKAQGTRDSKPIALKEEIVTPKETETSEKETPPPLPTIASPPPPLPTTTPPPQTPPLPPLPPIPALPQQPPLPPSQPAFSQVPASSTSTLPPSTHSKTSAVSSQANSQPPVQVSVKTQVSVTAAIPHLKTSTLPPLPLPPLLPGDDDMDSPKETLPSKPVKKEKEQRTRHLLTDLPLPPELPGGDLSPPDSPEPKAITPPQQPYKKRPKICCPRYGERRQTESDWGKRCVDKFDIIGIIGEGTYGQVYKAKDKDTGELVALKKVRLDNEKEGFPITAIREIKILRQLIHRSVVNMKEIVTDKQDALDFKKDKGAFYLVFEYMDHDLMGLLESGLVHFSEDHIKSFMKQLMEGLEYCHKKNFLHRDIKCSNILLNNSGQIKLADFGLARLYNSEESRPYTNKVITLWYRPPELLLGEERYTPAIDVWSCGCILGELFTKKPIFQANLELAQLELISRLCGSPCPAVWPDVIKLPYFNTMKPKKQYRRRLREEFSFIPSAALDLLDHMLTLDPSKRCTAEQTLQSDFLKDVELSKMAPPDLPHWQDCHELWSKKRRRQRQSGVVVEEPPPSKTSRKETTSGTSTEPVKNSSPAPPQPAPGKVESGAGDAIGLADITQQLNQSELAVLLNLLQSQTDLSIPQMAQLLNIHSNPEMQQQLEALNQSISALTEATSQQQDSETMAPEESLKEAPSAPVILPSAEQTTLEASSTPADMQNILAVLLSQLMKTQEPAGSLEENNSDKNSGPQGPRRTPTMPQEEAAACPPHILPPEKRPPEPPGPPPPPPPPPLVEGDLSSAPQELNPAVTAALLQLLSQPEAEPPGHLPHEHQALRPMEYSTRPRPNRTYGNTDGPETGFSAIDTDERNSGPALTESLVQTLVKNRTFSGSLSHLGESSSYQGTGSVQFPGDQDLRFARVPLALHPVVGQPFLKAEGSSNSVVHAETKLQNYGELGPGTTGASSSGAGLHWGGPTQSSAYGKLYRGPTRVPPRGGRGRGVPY
Chain of Cyclin-T1/Cyclin-dependent kinase 9 (O60563 whole entry): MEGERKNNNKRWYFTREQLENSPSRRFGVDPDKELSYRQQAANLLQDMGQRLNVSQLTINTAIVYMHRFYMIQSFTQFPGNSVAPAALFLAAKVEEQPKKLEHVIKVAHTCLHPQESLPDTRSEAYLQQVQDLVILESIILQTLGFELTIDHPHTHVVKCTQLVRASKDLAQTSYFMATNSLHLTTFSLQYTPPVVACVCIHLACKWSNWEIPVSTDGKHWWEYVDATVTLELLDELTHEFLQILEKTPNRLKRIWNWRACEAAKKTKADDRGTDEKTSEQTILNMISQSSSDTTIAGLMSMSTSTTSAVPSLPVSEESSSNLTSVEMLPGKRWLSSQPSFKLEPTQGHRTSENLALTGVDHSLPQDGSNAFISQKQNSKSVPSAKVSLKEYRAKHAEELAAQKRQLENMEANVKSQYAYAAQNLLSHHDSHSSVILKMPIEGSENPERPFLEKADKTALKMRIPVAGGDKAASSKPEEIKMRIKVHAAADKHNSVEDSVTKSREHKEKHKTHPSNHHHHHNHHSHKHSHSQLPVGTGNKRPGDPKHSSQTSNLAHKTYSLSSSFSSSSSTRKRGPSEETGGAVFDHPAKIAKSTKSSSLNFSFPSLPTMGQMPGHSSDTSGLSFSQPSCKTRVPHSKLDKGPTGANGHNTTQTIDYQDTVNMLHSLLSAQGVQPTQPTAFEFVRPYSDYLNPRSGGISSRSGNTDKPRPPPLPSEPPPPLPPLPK
Chain of Cyclin-T1/Cyclin-dependent kinase 9 (P50750 whole entry): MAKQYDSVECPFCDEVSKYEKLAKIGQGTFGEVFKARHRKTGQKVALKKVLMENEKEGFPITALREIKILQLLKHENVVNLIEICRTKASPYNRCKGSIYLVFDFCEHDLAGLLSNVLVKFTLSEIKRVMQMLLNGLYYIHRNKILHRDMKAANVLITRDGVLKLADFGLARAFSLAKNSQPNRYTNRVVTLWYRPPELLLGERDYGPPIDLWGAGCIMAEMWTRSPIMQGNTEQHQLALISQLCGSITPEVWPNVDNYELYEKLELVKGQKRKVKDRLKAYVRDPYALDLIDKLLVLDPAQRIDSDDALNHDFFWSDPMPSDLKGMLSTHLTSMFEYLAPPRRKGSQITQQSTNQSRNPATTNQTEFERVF

In the case of `FC(F)(F)c1ccc(-c2cnc(CNc3nc(N4CCOCC4)nc4c(C(F)(F)F)cnn34)[nH]2)cn1` [US20250066370, Example 24], the pIC50 in experiment [1] was 7.82; in experiment [2] it was 5.11; in experiment [3], 5.45.

For `COc1ccc(-c2cnc(CNc3nc(N4CCOCC4)nn4c(C(F)(F)F)cnc34)[nH]2)cc1` [US20250066370, Example 13], the pIC50 in experiment [1] is 7.91; in experiment [2], 4.79; in experiment [3] it was 5.56.

In the case of `FC(F)(F)c1ccc(-c2nnc(CNc3nc(N4CCOCC4)nc4c(C(F)(F)F)cnn34)[nH]2)cn1` [US20250066370, Example 16], the negative-log IC50 (pIC50) in experiment [1] is 7.10; in experiment [2] it was 5.39.

Regarding `FC(F)(F)Oc1ccc(-c2nnc(CNc3nc(N4CCOCC4)nc4c(C(F)(F)F)cnn34)[nH]2)cn1` [US20250066370, Example 17], the results for the pIC50 in experiment [1] and in experiment [2] were 8.22 and 5.17, respectively.

With `COc1ccc(-c2nnc(CNc3nc(N4CCOCC4)nn4c(C(F)(F)F)cnc34)[nH]2)cn1` [US20250066370, Example 18], the negative-log IC50 (pIC50) was 7.38 in experiment [1], < 5.24 in experiment [2] and 6.47 in experiment [3].
